From patent EP2132185B1, “PYRIMIDINYL-PIPERAZINES USEFUL AS DOPAMINE D3/D2 RECEPTOR LIGANDS” (Richter Gedeon Nyrt., priority 2007, dated 2008) come the findings set out here.

Series [1] deals with T1, rat recombinant D3 receptors (Rattus norvegicus, UniProt P19020).
T1 construct: purchased Perkin-Elmer 6110139; host or cells: Sf9 cells
Description: D3 receptor binding ([3H]spiperone). Conditions: rat recombinant D3 receptors expressed in Sf9 cells.

A further series addresses Alpha-1 receptor. Description: Alpha-1 receptor binding ([3H]-prazosine, rat cortical membrane preparation). Particulars: for Ki: rat cortical membrane preparation, [3H]-prazosine, read-out: α-1 Ki.
A further series has as its target T2, D2 receptor (Rattus norvegicus, UniProt P61169).
T2 construct: on rat brain striatal membrane preparation; from tissue; host or cells: rat brain striatum membranes
Description: D2 receptor binding ([3H]spiperone, rat brain striatal membrane preparation). Conditions: for Ki: rat brain striatal membrane preparation, [3H]spiperone.

The test system of series [2] is male Wistar rats. Description: Amphetamine-induced hypermotility. The format is in vivo. Conditions: Rattus norvegicus, 1 h, oral administration one hour before d-amphetamine 0.5 mg/kg sc., read-out: Inhibition of amphetamine-induced hypermotility (ED50, mg/kg). The method, then: 4. Amphetamine-Induced Hypermotility
One hour after the oral administration of doses of the test compound or vehicle, male Wistar rats were subcutaneously treated with d-amphetamine (0.5 mg/kg, sc.) and were individually placed in activity cages for one hour. Locomotor activity was measured in a four-channel activity monitor equipped with infrared photobeams Horizontal movement was determined as the number of beam interruptions. Mean ± SE of horizontal activity data of each group was calculated. Percent inhibition of amphetamine-induced increase in locomotion was calculated for each dose of the tested compound. The ED-50 value was determined by linear regression fitted to the dose-response plot.

In series [3] the test system is male Wistar rats. The series can be described thus: Catalepsy test. The format is in vivo, rat. Conditions: for Catalepsy (MED, mg/kg): oral treatment, rats, minimum effective (cataleptic) dose.
Description: Thirty minutes after the oral treatment with the test compounds male Wistar rats weighing 200-220 g (n=10/group) were placed in extra-ordinary position: placing both forepaws of the rat on a 10 cm high podium. […] The frequency of cataleptic animals was determined at one, two, three, four and five hours after the treatment. Minimum effective (cataleptic) dose was defined as the dose causing catalepsy at least at two readings (i.e. either at two time points in the same animal or in two different animals at any of the time points).
Series [4] concerns male Wistar rats. The series can be described thus: Scopolamine-induced learning disturbance in the water-labyrinth. The format is in vivo, rat. Particulars: scopolamine 3 mg/kg ip., negative values mean further impairment. On the procedure: 6. Scopolamine-Induced Learning Disturbance in the Water-Labyrinth
The learning process of rats was assessed in a 3-choice point water-labyrinth system. The number of directional turning errors was recorded in three daily trials for three experimental days. Male Wistar rats weighing 180-200 g (n=10 per groups) were treated orally with vehicle or the test compounds 1 hour before each daily session. Scopolamine (3 mg/kg ip.) as amnestic agent was injected 30 minutes prior to the first daily trial. Mean ± SE of errors committed in all the trials was calculated in each group. Percent inhibition of scopolamine-induced increase in the number of errors was calculated for each dose of the tested compound.

T2 sequence (P61169 whole entry): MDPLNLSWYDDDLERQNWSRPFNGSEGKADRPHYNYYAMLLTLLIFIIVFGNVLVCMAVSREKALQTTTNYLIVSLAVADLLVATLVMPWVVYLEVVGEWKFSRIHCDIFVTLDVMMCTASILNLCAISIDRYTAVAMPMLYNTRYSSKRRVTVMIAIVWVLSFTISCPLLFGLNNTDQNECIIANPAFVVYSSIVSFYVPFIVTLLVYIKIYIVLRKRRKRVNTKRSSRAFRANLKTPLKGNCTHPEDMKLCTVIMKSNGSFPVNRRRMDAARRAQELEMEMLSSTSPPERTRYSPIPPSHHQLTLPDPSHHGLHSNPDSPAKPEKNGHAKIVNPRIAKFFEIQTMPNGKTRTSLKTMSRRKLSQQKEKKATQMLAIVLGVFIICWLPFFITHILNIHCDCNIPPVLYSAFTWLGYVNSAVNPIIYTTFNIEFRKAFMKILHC
T1 sequence (P19020 whole entry): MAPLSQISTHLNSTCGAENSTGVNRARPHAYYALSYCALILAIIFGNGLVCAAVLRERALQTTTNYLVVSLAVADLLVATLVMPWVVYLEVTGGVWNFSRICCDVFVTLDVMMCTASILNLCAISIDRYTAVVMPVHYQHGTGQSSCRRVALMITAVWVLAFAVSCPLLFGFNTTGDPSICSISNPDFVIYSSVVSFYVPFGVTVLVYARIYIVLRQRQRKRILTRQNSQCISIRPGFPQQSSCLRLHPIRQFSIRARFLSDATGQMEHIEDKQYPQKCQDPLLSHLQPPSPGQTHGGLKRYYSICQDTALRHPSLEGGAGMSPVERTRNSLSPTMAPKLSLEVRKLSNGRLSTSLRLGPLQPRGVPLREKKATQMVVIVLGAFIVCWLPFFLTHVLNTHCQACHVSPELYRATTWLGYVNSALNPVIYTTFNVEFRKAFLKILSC
Description for Alpha-1 receptor: The non-specific binding was determined in the presence of 10 µM phentolamine.
Description for D2 receptor: Non-specific binding was determined in the presence of 1 µM (+) butaclamol.

The term Ki denotes the equilibrium dissociation constant of an inhibitor or competing ligand from its target. With `CNc1nc(Cl)c(Cl)c(N2CCN(CC[C@H]3CC[C@H](NC(=O)N4CCOCC4)CC3)CC2)n1` [Compound 7, trans-morpholine-4-carboxylic acid (4-{2-[4-(5,6-dichloro-2-methylamino-pyrimidin-4-yl)-piperazin-1-yl]-ethyl}-cyclohexyl)-amide], the inhibition constant Ki is 1 to 3 nM in series [1] and over 1000 nM at Alpha-1 receptor.

One may read the % inhibition as the change of the read-out against control, counted positive when it falls. On to `CNc1nc(Cl)c(Cl)c(N2CCN(CCC3CCC(NC(=O)N(C)C)CC3)CC2)n1` (stereo not drawn) [Compound 8, trans-3-(4-{2-[4-(5,6-dichloro-2-methylamino-pyrimidin-4-yl)-piperazin-1-yl]-ethyl}-cyclohexyl-1,1-dimethyl-urea], for which the figures for the Ki (in series [1]; at D2 receptor; on Alpha-1 receptor) were 1 to 3 nM, 15 to 50 nM and over 1000 nM, respectively. For the same molecule, on D2 receptor, the “D2 Sel. (D2/D3 selectivity, i.e., Ki for D2 receptor divided by Ki for D3 receptor)” value worked out at 7. Besides, in the series with male Wistar rats [2], the ED50 is 0.14 mg/kg. In addition, in the series on male Wistar rats [3], the “TI (therapeutic index - catalepsy MED divided by amphetamine hypermotility ED50)” value is on record as over 179. Moreover, the “Catalepsy (MED, mg/kg)” value in the series on male Wistar rats [3] is on record as over 25 mg/kg. Also, the results for the “% inhibition” value in the series with male Wistar rats [4] (Dose 0.025 mg/kg orally), in the series on male Wistar rats [4] (Dose 0.05 mg/kg orally) and with male Wistar rats [4] (Dose 1 mg/kg orally) were 38%, 65% and 31%, respectively.

Turning to `CCC(=O)NC1CCC(CCN2CCN(c3nc(NC)nc(Cl)c3Cl)CC2)CC1` (stereo not drawn) [Compound 11, trans-N-(4-{2-[4-(5,6-dichloro-2-methylamino-pyrimidin-4-yl)-piperazin-1-yl]-ethyl}-cyclohexyl-propionamide], the values for the Ki (in series [1]; at D2 receptor; on Alpha-1 receptor) were under 1 nM, 5 to 15 nM and over 1000 nM, respectively. Besides, at D2 receptor, the “D2 Sel. (D2/D3 selectivity, i.e., Ki for D2 receptor divided by Ki for D3 receptor)” value was 43.

For `CNc1nc(Cl)c(Cl)c(N2CCN(CC[C@H]3CC[C@H](NC(N)=O)CC3)CC2)n1` [Compound 2, Trans-(4-{2-[4-(5,6-dichloro-2-methylamino-pyrimidin-4-yl)-piperazin-1-yl]-ethyl}-cyclohexyl)-urea], the Ki in series [1] is 1 to 3 nM; at D2 receptor it was 15 to 50 nM; at Alpha-1 receptor, over 1000 nM. Besides, the “D2 Sel. (D2/D3 selectivity, i.e., Ki for D2 receptor divided by Ki for D3 receptor)” value on D2 receptor is 27.

As for `CCNC(=O)N[C@H]1CC[C@H](CCN2CCN(c3nc(NC)nc(Cl)c3Cl)CC2)CC1` [Compound 10, Trans-1-(4-{2-[4-(5,6-dichloro-2-methylamino-pyrimidin-4-yl)-piperazin-1-yl]-ethyl}-cyclohexyl)-3-ethyl-urea], the Ki in series [1] is under 1 nM; at D2 receptor, 5 to 15 nM; on Alpha-1 receptor it was over 1000 nM. In addition, the “D2 Sel. (D2/D3 selectivity, i.e., Ki for D2 receptor divided by Ki for D3 receptor)” value at D2 receptor amounted to 17.

Turning to `CNc1nc(Cl)c(Cl)c(N2CCN(CC[C@H]3CC[C@H](NC(C)=O)CC3)CC2)n1` [Compound 1, Tran-N-(4-{2-[4-(5,6-dichloro-2-methylamino-pyrimidin-4-yl)-piperazin-1-yl]-ethyl}-cyclohexyl)-acetamide], the “D2 Sel. (D2/D3 selectivity, i.e., Ki for D2 receptor divided by Ki for D3 receptor)” value at D2 receptor amounted to 22. Besides, the Ki at Alpha-1 receptor was over 1000 nM. Besides, the ED50 in the series with male Wistar rats [2] was 0.14 mg/kg. Moreover, the “TI (therapeutic index - catalepsy MED divided by amphetamine hypermotility ED50)” value in the series on male Wistar rats [3] came out at 714. The “Catalepsy (MED, mg/kg)” value in the series with male Wistar rats [3] was determined as 100 mg/kg. The “% inhibition” value is given as 36% in the series on male Wistar rats [4] (Dose 0.1 mg/kg orally), 58% in the series on male Wistar rats [4] (Dose 0.2 mg/kg orally), 61% in the series with male Wistar rats [4] (Dose 0.4 mg/kg orally) and 44% in the series with male Wistar rats [4] (Dose 0.8 mg/kg orally).

As to `CCNc1nc(Cl)c(Cl)c(N2CCN(CC[C@H]3CC[C@H](NC(C)=O)CC3)CC2)n1` [Compound 6, trans-N-(4-{2-[4-(5,6-dichloro-2-ethylamino-pyrimidin-4-yl)-piperazin-1-yl]-ethyl}-cyclohexyl)-acetamide], the Ki was 1 to 3 nM in series [1], 15 to 50 nM at D2 receptor and over 1000 nM on Alpha-1 receptor. The “D2 Sel. (D2/D3 selectivity, i.e., Ki for D2 receptor divided by Ki for D3 receptor)” value on D2 receptor stood at 23.

On to `Cc1cc2c(s1)Nc1ccccc1N=C2N1CCN(C)CC1` [Olanzapine, reference compound], for which the ED50 in the series on male Wistar rats [2] was found to be 1.8 mg/kg. The “% inhibition” value was -12% in the series with male Wistar rats [4] (Dose 1 mg/kg orally) and -49% with male Wistar rats [4] (Dose 3 mg/kg orally).

Consider `Cc1nc2n(c(=O)c1CCN1CCC(c3noc4cc(F)ccc34)CC1)CCCC2` [Risperidone, reference compound], for which the “α-1 Sel.” value with Alpha-1 receptor (selectivity column under α-1) stood at 0.07. In addition, in the series with male Wistar rats [2], the ED50 was 0.15 mg/kg. The “% inhibition” value in the series with male Wistar rats [4] (Dose 0.5 mg/kg orally) is listed as -15%.
